Consider three molecules from patent EP0610377B1, “TRI-SUBSTITUTED TETRAHYDROFURAN ANTIFUNGALS” (SCHERING CORPORATION, priority 1991, dated 1993).

Assay type in all cases: in vivo
The test system of assay [1] is C. albicans C-43. The assay can be described thus: Candida systemic model in CF1 mice infected IV with C. albicans C-43, oral treatment. The conditions noted are these: for %SURVIVAL: day 4 post-infection; for CFUs (GM): day 4, geometric mean of the logarithms of CFU remaining in the kidneys (dead mice counted as 10^9). Here is the method:
The compounds of Examples 23-26 and itraconazole, fluconazole, and saperconazole were tested for in vivo oral antifungal activity in a Candida systemic model using CF1 male mice , average weight 20 g, Harlan Sprague Dawley, Inc., Indianapolis, Ind. infected by IV injection into the tail vein of C. albicans C-43 (5 million CFUs). […] Oral efficacy was measured after four (4) days by percent survival and by the number of organisms remaining in the kidneys i.e., the Colony Forming Units (CFUs). The mice were sacrificed and the kidneys of individual mice were homogenized in sterile saline, diluted and spread onto Mycosel agar. Colony counts were determined after 48 hours at 37°C. For calculation of geometric means, mice that died during the experiment were considered to have 10^9 CFUs/kidneys (based on numerous previous experiments).

The test system of assay [2] is Aspergillus flavus. The assay can be described thus: Aspergillus flavus pulmonary infection model in compromised mice, oral treatment. The conditions noted are these: for %SURVIVAL / %ANIMALS NEG: 18 days post infection; for %SURVIVAL: compromised CF-1 mice; for %ANIMALS NEG: negative = <10 colonies. The text has this:
The in vivo oral antifungal activity of the compounds of Example 23-26 were compared to those of itraconazole, fluconazole and saperconazole in an Aspergillus pulmonary infection model in mice. The procedure of David Loebenberg et al. entitled "Sch 42427, The Active Enantiomer of Antifungal agent Sch 39304: In Vitro and In Vivo Activity" Antimicrobial Agents and Chemotherapy (1992), 36 498-501 was used. The Aspergillus flavus pulmonary model was run in the following manner Male, CF-1 mice weighing 20 grams were compromised with cortisone acetate (100 mg/kg), administered subcutaneously, once daily for 3 days. In addition, to prevent bacterial disease, tetracycline HCL (300 mg/1) was added to the drinking water and given ad libitum. On day 2 of compromising, mice were infected in an inhalation chamber, first described by Piggot and Emmons in 1960 and modified by us. The chamber is a 1 liter pyrex, thick-walled flask with 8 tubular side-arms that extend into the flask. Each side-arm is a pyrex tube of 14 cm length, constricted to a 1 cm opening inside the flask. The bottom of the flask was covered with a malt extract agar medium on which a sporulating culture of A. flavus ATCC 24133 was grown for 13 days at room temperature. The top of the flask was closed with a #10 stopper through which passed a glass tube attached by rubber tubing to a 60 mL syringe. Mice were placed in each of the side arms and pushed to the bottoms so that their nares extended beyond the open end of the tube and over the agar. Cotton plugs were then inserted behind the mice to hold them in place. By pumping the 60 mL syringe twice, air was forced over the culture and produced a cloud of spores. Mice were exposed to the spore cloud for one minute. Within 15-30 minutes after exposure, a number of mice were sacrificed and lung tissue samples homogenized for culture to determine the number of inhaled conidia. Oral treatment began 24 h post-infection with doses of 5 to 250 mg of drug/kg in ethanol; vehicle (115 ml of Emulphor EL-719P, GAF, Wayne, NJ; and 5 ml of 20% w/v lactic acid per liter of water), 10:90 v/v, once daily for 4 days.
The procedure of Example 31 was used to compare the in vivo oral antifungal activity of (±)-5R/S-(cis)-4-[4-[4-[4-[[5-(2,4-difluorophenyl)-5-(1H-1,2,4-triazol-1-ylmethyl) tetrahydrofuran-3-yl]methoxy-phenyl-1-piperazinyl]phenyl]-2,4-dihydro-2[(R/S)-(1-methylpropyl)]-3H-1,2,4-triazol-3-one with (±)-2R/S-(cis)-1-[4-[[2-(2,4-difluorophenyl)-2-(1H-1,2,4-triazol-1-ylmethyl) tetrahydro-4-furanyl]methoxy]phenyl]-4-(1-methylethyl)piperazine of Example 68 of USP 5,039,676 in an Aspergillus pulmonary infection model described in Example 31. […]
The procedures of Examples 31 and 34 were used.

The test system of assay [3] is Aspergillus flavus. The assay is described as above.
In assay [4] the test system is C. albicans C-65. The assay can be described thus: Candida systemic model in normal and compromised CF1 mice infected with C. albicans C-65, oral treatment. The conditions noted are these: normal and compromised mice; result in words (text refers to Tables II and V). The procedure: The compounds of Examples 23-26 and itraconazole, fluconazole, and saperconazole were tested for in vivo oral antifungal activity in a Candida systemic model using CF1 male mice , average weight 20 g, Harlan Sprague Dawley, Inc., Indianapolis, Ind. infected by IV injection into the tail vein of C. albicans C-43 (5 million CFUs). The drugs were dissolved in polyethylene glycol-200 (PEG-200) and tested by orally administering 50, 25 and 10 mpk of each drug 4 hours post infection and once daily for 3 more days. Oral efficacy was measured after four (4) days by percent survival and by the number of organisms remaining in the kidneys i.e., the Colony Forming Units (CFUs). The mice were sacrificed and the kidneys of individual mice were homogenized in sterile saline, diluted and spread onto Mycosel agar. Colony counts were determined after 48 hours at 37°C. For calculation of geometric means, mice that died during the experiment were considered to have 10^9 CFUs/kidneys (based on numerous previous experiments).
The compounds of Examples 23-24 and itraconazole, fluconazole, were tested for in vivo oral antifungal anctivity in a Candida systemic model using normal and compromised CF1 mice infected with C. albicans C-65 (5 million CFUs). The procedure of Example 33 was followed. The drugs were dissolved in polyethylene glycol-200 ("PEG-200) at room temperature and tested by orally administering 100, 50, 25, 10 and 1 mpk of each drug. Oral efficacy was measured by percent survival and by the number of organisms remaining in the kidneys (CFUs) after four days. […] The pharmaceutical composition of the preferred compound of formula IIb of Eample 24 in hydroxypropyl beta cyclodextrin ("HPβCD") having 7.4 hydroxypropyl groups per HPβCD (obtained from Pharmatec, Inc., Alachua, FL 32615) was prepared by admixing the appropriate amount of the compound IIa with a 40% (w/v) solution of HPβCD (4 g of HPβCD per 10 mL of purified water). Gentle heating was used to form a clear solution. For the 10 mpk dose, 12 mg of Ha was added to 6 mL of a 40% w/v solution of HPβCD. For dilutions, sterile water was added to the solution with mixing. The pharmaceutical composition of itraconazole and the Pharmatec HPβCD described above was prepared as follows. Propylene glycol (10 mL) was admixed with 0.95 mL of concentrated HCI at 40°-45°C with stirring. Itraconazole (2.5 g) was added thereto and stirring was continued until homogeneous. The mixture so formed was cooled to 20° to 30°C and admixed with a solution of 60 g of HPβCD in 40 mL of purified water to form a clear solution. The pH was adjusted to a value of 1.9-2.1 with 10N NaOH and sufficient purified water added (with mixing) to a final volume of 100 mL. For dilutions, sterile water was added to the itraconazole - HPβCD.

In assay [5] the test system is Candida. Put plainly: Candida vaginal infection in a hamster model. The conditions noted are these: result in words.
[6] abbreviates: 50 MPK PO in PEG-200, 1 a day x 4 days.
Setting [7] is: 33 mg/kg PO once a day for 4 days.
[8] abbreviates: 66 mg/kg PO once a day for 4 days.
Setting [9] is: 100 mg/kg PO once a day for 4 days.

For the molecule `CC[C@@H](C)n1ncn(-c2ccc(N3CCN(c4ccc(OC[C@H]5CO[C@](Cn6cncn6)(c6ccc(F)cc6F)C5)cc4)CC3)cc2)c1=O` [Example 26, (+)-[(5S)-cis]-4-[4-[4-[4-[[5-(2,4-Difluorophenyl)-5-(1H-1,24-triazol-1-ylmethyl)tetrahydrofuran-3-yl]methoxy]phenyl]-1-piperazinyl]phenyl]-2,4-dihydro-2-[(1R)-(1-methylpropyl)]-3H-1,2,4-triazol-3-one], the “%SURVIVAL” value in assay [1] (10 MPK PO in PEG-200, 1 a day x 4 days) was found to be 0%; in assay [1] (25 MPK PO in PEG-200, 1 a day x 4 days), 0%; in assay [1] (setting [6]) it was 20%; in assay [2] (setting [7]), 0%; in assay [2] (setting [8]), 0%; in assay [2] (setting [9]), 20%. Also, the “%SURVIVAL” value in assay [3] (33 mg/kg PO [3RX/DAY] for 4 days, 18 days post infection, compromised CF-1 mice) was found to be 0%. Moreover, the “CFUs (GM)” value in assay [1] (10 MPK PO in PEG-200) worked out at 9.00; in assay [1] (25 MPK PO in PEG-200), 9.00; in assay [1] (50 MPK PO in PEG-200) it was 7.84. Moreover, the “%ANIMALS NEG” value turned out to be 0% in assay [2] (setting [7]); 0% in assay [2] (setting [8]); 0% in assay [2] (setting [9]); 0% in assay [3] (33 mg/kg PO [3RX/DAY] for 4 days, 18 days post infection, negative = <10 colonies).
As to `CCC(CC)n1ncn(-c2ccc(N3CCN(c4ccc(OC[C@@H]5CO[C@@](Cn6cncn6)(c6ccc(F)cc6F)C5)cc4)CC3)cc2)c1=O` [IIc], the “activity against systemic candidiasis compared with itraconazole and saperconazole” value in assay [4] is given as “more active”. Further, in assay [5], the “activity against a Candida vaginal infection compared with itraconazole and saperconazole” value is given as “more active”. Also, in assay [2] (in vivo mouse model, PO, result in words), the “oral activity against Aspergillus flavus pulmonary infections compared with itraconazole, fluconazole and saperconazole” value was “more active orally”.
Turning to `CCC(C)n1ncn(-c2ccc(N3CCN(c4ccc(OC[C@H]5CO[C@](Cn6cncn6)(c6ccc(F)cc6F)O5)cc4)CC3)cc2)c1=O` (stereo partly shown) [Saperconazole, reference compound], in assay [1] (setting [6]), the “%SURVIVAL” value stood at 20%. Also, in assay [1] (50 MPK PO in PEG-200), the “CFUs (GM)” value is recorded as 8.20. Besides, in assay [2] (setting [9]), the “%SURVIVAL” value is recorded as 0% and the “%ANIMALS NEG” value stood at 0%. For the same molecule, the “PERCENT SURVIVAL AFTER 5 DAYS (5D)” value in assay [3] (head prints 50 mg/kg (third dose column, c3), in PEG-200 daily for 4 days, CF-1 mice) is listed as 50.
